Data published in patent US9822099B2, “Triazole derivatives” (priority 2013, dated 2017).
Read-outs that look alike come from different tables or passages of the source. Marks after values point to notes of the source that are not given here.

Columns and labels:
Puccinia recondita = experiment: Example B: in vivo preventive test on Puccinia recondita (brown rust on wheat); settings: wheat plants, preventive spray, evaluated 11 days after inoculation
Experimental: (§1) The young plants of wheat are treated by spraying the active ingredient prepared as described above. Control plants are treated only with an aqueous solution of acetone/Dimethyl sulfoxide/Tween®. After 24 hours, the plants are contaminated by spraying the leaves with an aqueous suspension of Puccinia recondita spores.

Septoria tritici = experiment: Example D: in vivo preventive test on Septoria tritici (leaf spot on wheat); settings: wheat plants, preventive spray, evaluated 24 days after inoculation
Experimental: as §1, with “Septoria tritici” for “Puccinia recondita”

Sphaerotheca fuliginea = experiment: Example E: in vivo preventive test on Sphaerotheca fuliginea (powdery mildew on cucurbits); settings: gherkin plants, preventive spray, evaluated 15 days after inoculation
Experimental: as §1, with “gherkin” for “wheat”, “Sphaerotheca fuliginea” for “Puccinia recondita”

Uromyces appendiculatus = experiment: Example F: in vivo preventive test on Uromyces appendiculatus (bean rust); settings: bean plants, preventive spray, evaluated 11 days after inoculation
Experimental: as §1, with “bean” for “wheat”, “Uromyces appendiculatus” for “Puccinia recondita”

[1] = system: Blumeria graminis f. sp. hordei; experiment: Example G: Blumeria test (barley)/preventive; assay type: in vivo; settings: 500 ppm of active ingredient, preventive, evaluated 7 days after inoculation
Experimental: (§2) Solvent: 49 parts by weight of N,N-dimethylacetamide Emulsifier: 1 part by weight of alkylaryl polyglycol ether To produce a suitable preparation of active compound, 1 part by weight of active compound or active compound combination is mixed with the stated amounts of solvent and emulsifier, and the concentrate is diluted with water to the desired concentration. To test for preventive activity, young plants are sprayed with the preparation of active compound or active compound combination at the stated rate of application. After the spray coating has been dried, the plants are dusted with spores of Blumeria graminis f. sp. hordei.

[2] = system: Fusarium nivale (var. majus); experiment: Example J: Fusarium nivale (var. majus)-test (wheat)/preventive; assay type: in vivo; settings: 500 ppm of active ingredient, preventive, evaluated 5 days after inoculation
Experimental: (§3) Solvent: 49 parts by weight of N,N-dimethylacetamide
(§4) Emulsifier: 1 part by weight of alkylaryl polyglycol ether
(§5) To produce a suitable preparation of active compound, 1 part by weight of active compound or active compound combination is mixed with the stated amounts of solvent and emulsifier, and the concentrate is diluted with water to the desired concentration.
To test for preventive activity, young plants are sprayed with the preparation of active compound or active compound combination at the stated rate of application.
After the spray coating has been dried, the plants are slightly injured by using a sandblast and afterwards they are sprayed with a conidia suspension of Fusarium nivale (var. majus).
The plants are placed in the greenhouse under a translucent incubation cabinet at a temperature of approximately 10° C. and a relative atmospheric humidity of approximately 100%.
(§6) The test is evaluated 5 days after the inoculation. 0% means an efficacy which corresponds to that of the untreated control, while an efficacy of 100% means that no disease is observed.

Leptosphaeria nodorum = experiment: Example K: Leptosphaeria nodorum test (wheat)/preventive; assay type: in vivo; settings: 500 ppm of active ingredient, preventive, evaluated 8 days after inoculation
Experimental: as §2, with “sprayed” for “dusted”, “a spore suspension” for “spores”, “Leptosphaeria nodorum.” for “Blumeria graminis f. sp. hordei.”

Botrytis cinerea = experiment: Example A: in vivo preventive test on Botrytis cinerea (grey mould); settings: gherkin plants, preventive spray, evaluated 4 to 5 days after inoculation
Experimental: as §1, with “gherkin” for “wheat”, “Botrytis cinerea” for “Puccinia recondita”

Pyrenophora teres = experiment: Example C: in vivo preventive test on Pyrenophora teres (net blotch on barley); settings: 500 ppm of active ingredient; barley plants, preventive spray; evaluated 14 days after inoculation
Experimental: as §1, with “barley” for “wheat”, “Pyrenophora teres” for “Puccinia recondita”

Fusarium graminearum = assay type: in vivo; settings: 500 ppm of active ingredient; barley, preventive; evaluated 5 days after inoculation
Phakopsora pachyrhizi = experiment: Example L: Phakopsora test (soybeans)/preventive; assay type: in vivo; settings: preventive, evaluated 7 days after inoculation
Pyricularia oryzae = assay type: in vivo; settings: 500 ppm of active ingredient; rice, preventive; evaluated 8 days after inoculation
Fusarium culmorum = experiment: Example H: Fusarium culmorum-test (wheat)/curative; assay type: in vivo; settings: 500 ppm of active ingredient, curative, evaluated 5 days after inoculation
Experimental: as §3, §4, §5
To test for curative activity, young plants are slightly injured by using a sandblast and afterwards they are sprayed with a conidia suspension of Fusarium culmorum and placed for 24 hours in a greenhouse under a translucent incubation cabinet at a temperature of approximately 22° C. and a relative atmospheric humidity of approximately 100% and are subsequently sprayed with the preparation of active compound at the stated rate of application.
After the spray coating has been dried, the plants remain in the greenhouse under translucent incubation cloches at a temperature of approximately 22° C. and a relative atmospheric humidity of approximately 100%.
as §6

Structure (SMILES) | Eff. % (Puccinia recondita; 500 ppm of active ingredient) [%] | Eff. % (Septoria tritici; 500 ppm of active ingredient) [%] | Eff. % (Sphaerotheca fuliginea; 500 ppm of active ingredient) [%] | Eff. % (Uromyces appendiculatus; 500 ppm of active ingredient) [%] | Eff. % [1] [%] | Eff. % [2] [%] | Eff. % (Leptosphaeria nodorum) [%] | LogP (pH 2.7) | Eff. % (Botrytis cinerea; 500 ppm of active ingredient) [%] | Eff. % (Pyrenophora teres) [%] | Eff. % (Fusarium graminearum) [%] | Eff. % (Phakopsora pachyrhizi; 10 ppm of active ingredient) [%] | Eff. % (Pyricularia oryzae) [%] | Eff. % (Sphaerotheca fuliginea; 100 ppm of active ingredient) [%] | further results
CC(C)(Oc1ccc(Cl)cc1)C(O)(Cc1ccncc1Cl)Cn1cncn1 (racemic) [Example I-70] | 94 | 100 | 100 | 99 | 100 | 88 | 89 | 2.84^[a] |  |  |  |  |  |  | 
OC(Cc1cc(Cl)ncc1Cl)(Cn1cncn1)C1(Cl)CC1 (stereo not shown) [Example I-58] | 97 | 100 | 100 | 100 | 100 | 100 | 93 | 2.53^[a] | 98 | 95 | 100 | 89 | 100 |  | 
OC(Cc1ccncc1Cl)(Cn1cncn1)C1CCC1 (racemic) [Example I-77] | 98 | 100 | 100 | 100 | 100 | 83 |  | 1.46^[a] | 100 | 86 | 86 |  | 86 |  | Eff. % (Phakopsora pachyrhizi; 100 ppm of active ingredient): 100%
OC(Cc1ccnc(Cl)c1)(Cn1cncn1)C1(F)CC1 (stereo not shown) [Example I-33] | 93 | 100 | 100 | 100 | 100 | 93 | 86 | 1.44^[a] |  | 75 | 100 |  |  |  | Eff. % (Botrytis cinerea; 100 ppm of active ingredient): 94%
CC(CF)(CF)C(O)(Cc1ccnc(Cl)c1)Cn1cncn1 (stereo not shown) [Example I-36] | 97 | 100 | 100 | 100 | 100 |  |  | 1.66^[a] |  | 88 | 94 |  |  |  | 
OC(Cc1cccnc1Cl)(Cn1cncn1)C1(Cl)CC1 (single isomer, unassigned) [Example I-95] |  |  |  |  | 100 | 100 | 100 | 1.81^[a] |  |  | 100 |  | 100 |  | LogP (pH 7.8): 1.79^[b];
OC(Cc1cc(Cl)nnc1Cl)(Cn1cncn1)C1(Cl)CC1 (stereo not shown) [Example I-46] |  |  |  |  |  | 100 | 83 | 1.92^[a] |  |  | 92 |  | 78 | 100 | Eff. % (Puccinia recondita; 100 ppm of active ingredient): 88%; Eff. % (Septoria tritici; 100 ppm of active ingredient): 100%
OC(Cc1ccc(Cl)c(Cl)n1)(Cn1cncn1)C1(Cl)CC1 (stereo not shown) [Example I-31] |  |  |  |  | 100 | 75 | 88 | 2.66^[a] |  |  |  |  |  | 90 | Eff. % (Puccinia recondita; 100 ppm of active ingredient): 83%; Eff. % (Septoria tritici; 100 ppm of active ingredient): 100%; Eff. % (Uromyces appendiculatus; 100 ppm of active ingredient): 94%
OC(Cc1nccnc1Br)(Cn1cncn1)C1(Cl)CC1 (racemic) [Example I-71] | 94 | 100 | 100 | 99 | 100 | 94 |  | 1.96^[a] | 100 | 79 | 100 |  | 80 |  | 
OC(Cc1nccnc1Cl)(Cn1cncn1)C1(Cl)CC1 (stereo not shown) [Example I-30] |  |  |  |  |  |  |  | 1.86^[a] |  |  |  | 75 |  | 94 | Eff. % (Uromyces appendiculatus; 100 ppm of active ingredient): 100%
OC(Cc1ccnnc1Cl)(Cn1cncn1)C1(Cl)CC1 (stereo not shown) [Example I-45] |  |  |  |  | 100 | 100 | 88 | 1.31^[a] |  |  | 100 | 93 |  | 100 | Eff. % (Puccinia recondita; 100 ppm of active ingredient): 97%; Eff. % (Septoria tritici; 100 ppm of active ingredient): 100%; Eff. % (Uromyces appendiculatus; 100 ppm of active ingredient): 100%; Eff. % (Fusarium culmorum): 100%
OC(Cc1cccnc1Cl)(Cn1cncn1)C1(Cl)CC1 (single isomer, unassigned) [Example I-94] |  |  |  |  | 100 | 100 | 71 | 1.81^[a] |  |  |  |  | 70 |  | LogP (pH 7.8): 1.79^[b];
OC(Cc1cc(Cl)ncc1F)(Cn1cncn1)C1(Cl)CC1 (stereo not shown) [Example I-40] | 97 | 100 | 100 | 100 | 100 | 86 | 100 | 2.06^[a] | 97 | 100 | 100 | 73 |  |  | 
OC(Cc1ccncc1C(F)(F)F)(Cn1cncn1)C1(Cl)CC1 (racemic) [Example I-81] | 100 | 100 | 100 | 100 | 100 | 100 | 100 | 2.08^[a] | 99 | 97 | 100 | 85 | 100 |  | 
OC(Cc1ccnc2ccccc12)(Cn1cncn1)C1(Cl)CC1 (stereo not shown) [Example I-27] |  |  |  |  | 100 | 93 |  | 1.00^[a] |  |  | 100 |  | 89 | 100 | Eff. % (Botrytis cinerea; 100 ppm of active ingredient): 98%; Eff. % (Uromyces appendiculatus; 100 ppm of active ingredient): 98%
OC(Cc1ccc(Cl)nc1)(Cn1cncn1)C1(Cl)CC1 (stereo not shown) [Example I-4] | 100 | 96 | 100 | 97 | 100 | 71 | 80 | 1.84^[a] | 100 |  |  |  |  |  | Eff. % (Fusarium culmorum): 92%; Eff. % (Phakopsora pachyrhizi; 100 ppm of active ingredient): 95%
